Test results reported in article PMC6009965, “α-Glucosidase inhibition by flavonoids: an in vitro and in silico structure–activity relationship study” (Journal of Enzyme Inhibition and Medicinal Chemistry, 2017).
Read-outs that look alike come from different tables or passages of the source.

How the values were obtained:
[1] = molecular target: T1, yeast α-glucosidase (Saccharomyces cerevisiae, UniProt P53341); test: Inhibitory kinetic analysis (Michaelis–Menten, Lineweaver–Burk plots); format: biochemical; conditions: for Type of inhibition: pNPG 300, 600 and 1200 μM
T1 construct: purchased Sigma-Aldrich Co. LLC (St. Louis, MO)
Description: Briefly, the enzyme (0.05 U/mL), dissolved in 100 mM phosphate buffer (pH 6.8), was pre-incubated at 37 °C with the above mentioned flavonoids in a 96-well plate, for 5 min. In sequence, pNPG was added (300, 600 and 1200 μM) and incubated in the reaction mixture at 37 °C for 30 min.
The study of the inhibition type (competitive, uncompetitive, non-competitive or mixed) of the tested flavonoids was performed using the nonlinear regression Michaelis–Menten enzyme kinetics and the corresponding Lineweaver–Burk double reciprocal plots for each concentration of the inhibitor and substrate. The Ki values were calculated with GraphPad Software 6.0 by plotting the reciprocal of maximum velocity (1/V max) (y axis) against the flavonoid concentrations (x axis) (Table 2)[38–40].
The type of inhibition parameters were all calculated with GraphPad Software 6.0. The obtained results represent at least three independent experiments.

[2] = test system: α-glucosidase; conditions: cited from earlier work; for Activity against α-glucosidase catalytic activity: ref Gao et al. 27
[3] = molecular target: T2, α-glucosidase from Saccharomyces cerevisiae (Saccharomyces cerevisiae, UniProt P53341); test: biochemical
T2 construct: purchased Sigma-Aldrich Co. LLC (St. Louis, MO)
Description: Compounds A1, A2, A3, A4, A5, A6, B1, B2, B3, B4, C1, C2, C3, C4, C5, C6, C8, C9, D1 (chrysin), D2 (galangin) and D5 were obtained from Indofine Chemical Company, Inc. (Hillsborough, NJ). The flavonoids C7, C10, C11, C12, C13, D10, D11, D12, D13, D14 and D17 were synthesised as previously described. For the enzymatic assays, flavonoids were dissolved in DMSO (the final concentration of DMSO in the reactional mixture was 4.76%).
The α-glucosidase activity was measured using a method of Tadera et al.[31] slightly modified. The assay was carried out by monitoring the α-glucosidase-mediated transformation of the substrate pNPG into α-D-glucose and p-nitrophenol, at 405 nm. Briefly, in a 96-well plate, the enzyme (0.05 U/mL), dissolved in 100 mM phosphate buffer (pH 6.8), was pre-incubated at 37 °C for 5 min with the flavonoids (0–200 μM). In sequence, pNPG was added (600 μM) and incubated in the reaction mixture at 37 °C for 30 min. The enzymatic reaction was monitored spectrophotometrically, in a microplate reader (Synergy HT, BIO-TEK), by measuring the absorbance at 405 nm. The obtained values correspond to the slope measured between 5 and 20 min. […] The obtained results represent at least three independent experiments.

[4] = read-out: Inhibitory activity at the highest tested concentration
[5] = enzyme 0.05 U/mL, pNPG 600 μM, pH 6.8, 37 °C, mean ± SEM, read-out: IC50
[6] = mean ± SEM, from 1/Vmax vs flavonoid concentration, read-out: Ki

T1 sequence (P53341 whole entry): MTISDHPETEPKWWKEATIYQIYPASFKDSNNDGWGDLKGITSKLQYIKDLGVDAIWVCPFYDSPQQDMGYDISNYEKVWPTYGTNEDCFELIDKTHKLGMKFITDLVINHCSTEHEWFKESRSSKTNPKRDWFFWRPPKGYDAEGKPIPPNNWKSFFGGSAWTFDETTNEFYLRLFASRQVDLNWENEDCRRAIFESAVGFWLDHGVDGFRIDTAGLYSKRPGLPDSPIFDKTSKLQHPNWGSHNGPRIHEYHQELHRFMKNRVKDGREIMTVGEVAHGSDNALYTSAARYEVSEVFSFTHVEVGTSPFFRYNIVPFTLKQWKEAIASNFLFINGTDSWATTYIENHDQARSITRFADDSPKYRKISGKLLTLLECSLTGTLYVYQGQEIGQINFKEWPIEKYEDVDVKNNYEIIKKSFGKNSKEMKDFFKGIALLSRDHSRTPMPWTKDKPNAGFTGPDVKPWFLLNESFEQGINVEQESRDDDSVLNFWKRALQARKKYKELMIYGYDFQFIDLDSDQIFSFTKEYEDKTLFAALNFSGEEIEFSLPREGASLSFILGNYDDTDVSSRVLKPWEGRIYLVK
T2 sequence (P53341 whole entry): as above

C[C@H]1O[C@H](O[C@H]2[C@H](O)[C@@H](O)[C@@H](O[C@H]3[C@H](O)[C@@H](O)C(O)O[C@@H]3CO)O[C@@H]2CO)[C@H](O)[C@@H](O)[C@@H]1N[C@H]1C=C(CO)[C@@H](O)[C@H](O)[C@H]1O (stereo partly drawn) [Acarbose, reference compound]
Type of inhibition [1]: Competitive
Type of inhibition ([2]; ref Kim et al. 68, Lopez et al. 69): competitive
Type of inhibition ([2]; ref Son et al. 70): mixed type of inhibition

O=c1cc(-c2ccccc2)oc2ccccc12 [Compound A1, Flavone]
Inhibitory activity against α-glucosidase (in words) [3]: not able to inhibit α-glucosidase
inhibition at 200 µM [3, 4]: < 20%

O=c1cc(-c2cccc(O)c2)oc2ccccc12 [Compound A2]
Inhibitory activity against α-glucosidase (in words) [3]: low or no inhibitory activity
inhibition at 200 µM [3, 4]: < 20%

O=c1cc(-c2ccc(O)cc2)oc2ccccc12 [Compound A3]
Inhibitory activity against α-glucosidase (in words) [3]: low or no inhibitory activity
inhibition at 200 µM [3, 4]: < 20%

O=c1cc(-c2ccc(O)c(O)c2)oc2ccccc12 [Compound A4]
Inhibitory activity against α-glucosidase (in words) [3]: low or no inhibitory activity
inhibition at 200 µM [3, 4]: 32 ± 4%

O=c1c(O)c(-c2ccc(O)c(O)c2)oc2ccccc12 [Compound A5]
IC50 [3, 5]: 54 ± 3 µM
Ki [1]: 41 ± 7 µM
Type of inhibition [1]: Mixed

COc1ccc(-c2oc3ccccc3c(=O)c2O)cc1OC [Compound A6]
IC50 [3, 5]: > 100 µM
inhibition at 100 µM [3, 4]: < 20%

O=c1cc(-c2ccccc2)oc2cccc(O)c12 [Compound B1]
inhibition at 200 µM [3, 4]: < 20%
Activity against α-glucosidase catalytic activity [2]: no activity

O=c1cc(-c2cccc(O)c2)oc2cccc(O)c12 [Compound B2]
inhibition at 200 µM [3, 4]: 31 ± 4%

O=c1cc(-c2ccc(O)cc2)oc2cccc(O)c12 [Compound B3]
IC50 [3, 5]: 66 ± 2 µM
Ki [1]: 127 ± 9 µM
Type of inhibition [1]: Mixed

O=c1cc(-c2ccc(O)c(O)c2)oc2cccc(O)c12 [Compound B4]
IC50 [3]: 66 ± 7 µM

O=c1cc(-c2ccccc2)oc2cc(O)ccc12 [Compound C1]
IC50 [3]: > 200 µM
inhibition at 200 µM [3, 4]: < 20%
Activity against α-glucosidase catalytic activity [2]: no activity

O=c1cc(-c2cccc(O)c2)oc2cc(O)ccc12 [Compound C2]
IC50 [3, 5]: 53 ± 4 µM

O=c1cc(-c2ccc(O)cc2)oc2cc(O)ccc12 [Compound C3]
IC50 [3, 5]: ~200 µM

O=c1c(O)c(-c2cccc(O)c2)oc2cc(O)ccc12 [Compound C4]
IC50 [3, 5]: 42 ± 4 µM

O=c1c(O)c(-c2ccc(O)cc2)oc2cc(O)ccc12 [Compound C5]
IC50 [3, 5]: 96 ± 10 µM

O=c1cc(-c2ccc(O)c(O)c2)oc2cc(O)ccc12 [Compound C6]
IC50 [3, 5]: 95 ± 7 µM

O=c1c(O)c(-c2ccc(O)c(O)c2)oc2c(O)c(O)ccc12 [Compound C7]
IC50 [3, 5]: 7.6 ± 0.4 µM
Ki [1]: 6.5 ± 0.2 µM
Type of inhibition [1]: Competitive

COc1cccc(-c2oc3cc(OC)ccc3c(=O)c2O)c1 [Compound C8]
inhibition at 100 µM [3, 4]: 22 ± 2%

COc1ccc(-c2oc3cc(OC)ccc3c(=O)c2O)cc1 [Compound C9]
inhibition at 200 µM [3, 4]: < 20%

COc1ccc2c(=O)c(O)c(-c3ccc(O)c(O)c3)oc2c1OC [Compound C10]
IC50 [3]: 86 ± 6 µM

COc1ccc(-c2oc3c(O)c(O)ccc3c(=O)c2O)cc1OC [Compound C11]
inhibition at 200 µM [3, 4]: 31 ± 3%

COc1ccc2c(=O)c(O)c(-c3ccc(OCc4ccccc4)c(OCc4ccccc4)c3)oc2c1OC [Compound C12]
inhibition at 200 µM [3, 4]: < 20%

COc1ccc(-c2oc3c(OCc4ccccc4)c(OCc4ccccc4)ccc3c(=O)c2O)cc1OC [Compound C13]
inhibition at 200 µM [3, 4]: 32 ± 3%

O=c1cc(-c2ccccc2)oc2cc(O)cc(O)c12 [Compound D1, Chrysin]
Inhibitory activity against α-glucosidase (in words) [3]: no inhibitory effect
inhibition at 50 µM [3, 4]: < 20%

O=c1c(O)c(-c2ccccc2)oc2cc(O)cc(O)c12 [Compound D2, Galangin]
inhibition at 200 µM [3, 4]: 21 ± 3%

O=c1cc(-c2ccccc2)oc2cc(O)c(O)c(O)c12 [Compound D3, Baicalein]
IC50 [3, 5]: 44 ± 3 µM

O=c1cc(-c2cccc(O)c2)oc2cc(O)cc(O)c12 [Compound D4]
IC50 [3]: 89 ± 3 µM

O=c1cc(-c2ccc(O)cc2)oc2cc(O)cc(O)c12 [Compound D5, Apigenin]
IC50 [3]: 82 ± 6 µM

O=c1cc(-c2ccc(O)c(O)c2)oc2cc(O)cc(O)c12 [Compound D7, Luteolin]
IC50 [3, 5]: 46 ± 6 µM

O=c1c(O)c(-c2ccc(O)c(O)c2)oc2cc(O)cc(O)c12 [Compound D8, Quercetin]
Type of inhibition [1]: Competitive
Type of inhibition [2]: mixed type inhibitor

O=c1c(O)c(-c2ccc(O)cc2O)oc2cc(O)cc(O)c12 [Compound D9, Morin]
IC50 [3]: 32 ± 2 µM

O=c1c(Cl)c(-c2ccc(O)c(O)c2)oc2cc(O)cc(O)c12 [Compound D10]
IC50 [3]: 21 ± 2 µM
Ki [1, 6]: 51 ± 6 µM
Type of inhibition [1]: Non-competitive

O=c1cc(-c2ccc(O)c(O)c2)oc2cc(O)c(Cl)c(O)c12 [Compound D11]
IC50 [3, 5]: ~200 µM

O=c1cc(-c2ccc(O)c(O)c2)oc2c(Cl)c(O)cc(O)c12 [Compound D12]
IC50 [3]: 55 ± 2 µM

O=c1c(Cl)c(-c2ccc(O)c(O)c2)oc2c(Cl)c(O)cc(O)c12 [Compound D13]
IC50 [3]: 43 ± 3 µM

O=c1cc(-c2ccc(O)c(O)c2)oc2c(Cl)c(O)c(Cl)c(O)c12 [Compound D14]
IC50 [3]: 34 ± 3 µM

COc1ccc(-c2cc(=O)c3c(O)cc(O)cc3o2)cc1 [Compound D16, Acacetin]
IC50 [3, 5]: ~200 µM

COc1ccc(-c2cc(=O)c3c(O)cc(O)cc3o2)cc1OC [Compound D17]
inhibition at 200 µM [3, 4]: < 20%

C[C@@H]1O[C@@H](OC[C@H]2O[C@@H](Oc3c(-c4ccc(O)c(O)c4)oc4cc(O)cc(O)c4c3=O)[C@H](O)[C@@H](O)[C@@H]2O)[C@H](O)[C@H](O)[C@H]1O [Compound D18, Rutin]
Inhibitory activity against α-glucosidase (in words) [3]: low activity
inhibition at 200 µM [3, 4]: < 20%

O=C1C[C@@H](c2ccc(O)cc2)Oc2cc(O)cc(O)c21 [Compound E1, Naringenin]
inhibition at 200 µM [3, 4]: 45 ± 3%

O=C1C[C@@H](c2ccc(O)c(O)c2)Oc2cc(O)cc(O)c21 [Compound E2, Eriodictyol]
inhibition at 200 µM [3, 4]: 35 ± 4%

O=C1c2c(O)cc(O)cc2OC(c2ccc(O)c(O)c2)C1O (stereo not drawn) [Compound E3, Taxifolin]
IC50 [3]: ~200 µM
Ki [1, 6]: 347 ± 15 µM
Type of inhibition [1]: Non-competitive
